Reference: PMC12508687, “Elucidating the Role and Mechanism of Alpha‐Enolase in Senescent Amelioration via Metabolic Reprogramming” (Cell Proliferation, 2025)

Columns and labels:
Assay in all cases: microscale thermophoresis (MST)
Assay type in all cases: binding
alpha-enolase (ENO1) = biological target: T1, alpha-enolase (ENO1) (Homo sapiens, UniProt P06733)
T1 construct: His-tagged ENO1 protein

pyruvate kinase M (PKM) = biological target: T2, pyruvate kinase M (PKM) (Homo sapiens, UniProt P14618)
T2 construct: His-tagged PKM protein
T2 sequence (P14618 2-531): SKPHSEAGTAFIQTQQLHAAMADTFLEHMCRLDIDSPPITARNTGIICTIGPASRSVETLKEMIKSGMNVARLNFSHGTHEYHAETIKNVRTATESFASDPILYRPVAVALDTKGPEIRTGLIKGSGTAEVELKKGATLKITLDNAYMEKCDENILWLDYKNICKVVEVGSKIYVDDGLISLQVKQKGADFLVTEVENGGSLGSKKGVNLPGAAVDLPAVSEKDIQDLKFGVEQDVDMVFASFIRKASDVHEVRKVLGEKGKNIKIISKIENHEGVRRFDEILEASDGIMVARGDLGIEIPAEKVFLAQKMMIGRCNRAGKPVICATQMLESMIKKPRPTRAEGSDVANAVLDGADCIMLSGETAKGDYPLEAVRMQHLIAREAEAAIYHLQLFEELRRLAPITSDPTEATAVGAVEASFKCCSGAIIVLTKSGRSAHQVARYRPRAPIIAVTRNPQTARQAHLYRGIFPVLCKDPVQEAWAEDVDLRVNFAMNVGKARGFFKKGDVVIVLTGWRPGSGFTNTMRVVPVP

ENO1 (S254A) = biological target: T3, ENO1 (S254A) (Homo sapiens, UniProt P06733, S254A)
T3 construct: His-tagged ENO1 (S254A) protein
T3 sequence (P06733 2-434 S254A): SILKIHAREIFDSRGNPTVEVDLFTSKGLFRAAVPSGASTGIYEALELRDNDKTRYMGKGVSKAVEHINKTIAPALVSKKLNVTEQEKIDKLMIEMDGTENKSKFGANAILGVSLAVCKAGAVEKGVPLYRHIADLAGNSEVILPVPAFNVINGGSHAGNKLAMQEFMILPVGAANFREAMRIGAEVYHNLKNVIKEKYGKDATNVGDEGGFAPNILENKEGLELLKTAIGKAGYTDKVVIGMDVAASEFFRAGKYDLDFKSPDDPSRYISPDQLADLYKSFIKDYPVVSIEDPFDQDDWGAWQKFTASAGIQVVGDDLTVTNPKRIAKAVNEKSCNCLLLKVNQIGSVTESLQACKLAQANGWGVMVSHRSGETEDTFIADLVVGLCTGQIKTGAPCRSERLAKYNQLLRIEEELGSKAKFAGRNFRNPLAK

T1 sequence (P06733 2-434): as the sequence (P06733 2-434 S254A) above, with A253S counted along it

- Kd (alpha-enolase (ENO1)): 0.0401 µM
- Kd (pyruvate kinase M (PKM)): 9.32 µM
- Kd (ENO1 (S254A)): 240 µM
SMILES: CCOC(=O)c1nc(-c2ccc(C(F)(F)F)cc2)oc1-c1cccc(C)c1 [KB2764]
